Measurements: a melting point compilation (Tetko et al.; mined from patent text by program, amines drawn as free bases though some values may be those of a salt)

melting point: 69 to 70 °C
Compound: CCOC(=O)CN1C(=O)COc2c(Cl)nc(C)nc21
